Test results: ChEMBL document CHEMBL5724562, “Toxicity screen in isolated B cell assay results for EUbOPEN Chemogenomics Library” (2024)

These compounds were tested on B cell (assay: Cytotoxicity screening of chemical probes in isolated B cell assay. Data is normalized to DMSO control, the cell viability average of replicates are reported. Reduction of ATP level more than 20% indicate compromised cell health status.). Settings: human, 0.1 µM.

SMILES | Cell Viability [%]
Nc1c(C(=O)NCc2ccc(C(=O)NCCCC3CCCCC3)cc2)cnn1-c1ccccc1 [SR-318] | 97.9561

Same assay, conditions: human, 1 µM

SMILES | Cell Viability [%]
C[C@@H](O[C@H]1OCCN(Cc2n[nH]c(=O)[nH]2)[C@H]1c1ccc(F)cc1)c1cc(C(F)(F)F)cc(C(F)(F)F)c1 [APREPITANT] | 101.584
Cc1nnc2c3ccccc3c(N[C@@H](C)[C@H](c3ccccc3)N(C)C)nn12 | 95.5642
C[C@@H](c1cccc(CN)c1)n1cc(Cl)cc(C(N)=O)c1=N.Cl | 100.561
C[C@H](c1ccnc(Nc2nc3ccc(-c4cc(N(C)C)ncn4)cc3[nH]2)c1)N1CCN(C(=O)CC(F)(F)F)CC1 [BAY-985] | 78.1838
COc1cc(C(=O)N2CC[C@@H](O)[C@@H](N)C2)cc2nc(-c3cc4ccccc4n3CC3CC3)n(C)c12.Cl | 96.5784
O=C(NC[C@@H]1[C@H]2CN(C(=O)OCc3cc(C(F)(F)F)cc(C(F)(F)F)c3)C[C@@H]12)c1ccc2[nH]nnc2c1 [BI 2545] | 100.102
Cn1cc(CCn2cnc(-c3cnn(C)c3)c2-c2ccc(C#N)cc2)cn1 | 99.8514
CO[C@@H](C)c1c(Nc2ccc([C@H](N(C)C(=O)C3CCS(=O)(=O)CC3)C(F)(F)F)cc2)cnc2cc(Cl)nn12 [NVS-MALT1] | 90.4509
CCc1ccccc1C(=O)Nc1n[nH]c2c(C)c(F)c(C3C(C#N)=C(C)N(C)C(C)=C3C#N)cc12 [BAY-3827] | 97.1659
O=C(N1CCS(=O)(=O)CC1)N1C[C@H](c2ccc(OC(F)(F)F)cc2)C[C@H](c2nc(C3CC3)no2)C1 [BAY-386] | 95.9614
O=C(NCC(=O)N1CCCC1)Nc1ccc2cnccc2c1 | 100.263
CC(=O)c1cc(-c2cc(C(=O)NC3CC3)ccc2C)c2ncccn12 | 95.0596
Cl.O=C([C@@H](Cc1cccc(C(F)(F)F)c1)NS(=O)(=O)c1cc(F)c2c(c1)CCNC2)N1CCCC1 | 98.8503
COc1cc(Nc2nccc(-c3cnn4nc(OC)ccc34)n2)cc(C(F)(F)F)c1 | 93.0077
COc1ccccc1S(=O)(=O)Nc1ccc2c(c1)CN(C)C(=O)N2 | 94.2739
Cl.Cl.Cl.c1ccc(N2CCN(Cc3nc4ccccc4[nH]3)CC2)nc1 | 98.1024
CCNC(=O)c1cc2c(N3CCOCC3C)ccnc2[nH]1 (configuration not stated) | 99.1799
CC(C)Cc1ccc([C@@H](C)C(=O)NS(C)(=O)=O)cc1 [REPARIXIN] | 94.4279
COc1ccc2c(O[C@@H]3C[C@H]4C(=O)N[C@]5(C(=O)O)CC5/C=C\CCCCC[C@H](NC(=O)OC5CCCC5)C(=O)N4C3)cc(-c3csc(NC(=O)C(C)C)n3)nc2c1C (some centres not stated) [BI 1230] | 99.1645
O=S(=O)(c1ccccc1)c1cnc2c(N3CCNCC3)cccc2c1 [INTEPIRDINE] | 101.733
CCCCN(Cc1ccccc1)C(=O)c1ccc(S(=O)(=O)Nc2ccccc2)cc1 | 99.9127
C[C@H](NC(=O)c1cnc2n1[C@](C)(Cc1ccc(C#N)cc1)C(=O)N2c1cc(Cl)c(F)c(Cl)c1)C(=O)NC1(c2ccccn2)CC1 [BI 1950] | 96.273
Cl.Cl.c1ccc([C@@H]2C[C@H]2NC2CCNCC2)cc1 | 93.3816
Cc1nc[nH]c1CCN.Cl | 99.4273
COc1cc(C#N)ccc1S(=O)(=O)Nc1ccc2c(c1)cc(C)c(=O)n2C | 99.4263
CN(C)CCCOc1ccc(-c2cc(NCCCn3cccn3)nc(S(C)(=O)=O)n2)cc1 | 98.5143
